Data published in US20250057813A1, “APOPTOSIS RELATED PROTEIN IN THE TGF-BETA SIGNALING PATHWAY (ARTS) MIMETIC COMPOUNDS, COMPOSITIONS, METHODS AND USES THEREOF IN INDUCTION OF APOPTOSIS” (Carmel-Haifa University Economic Corporation Ltd., priority 2022, published 2025).
Peptide text beside a SMILES is read from it. * marks the point of attachment. Cbz = O=C(OCc1ccccc1)*

Legend:
[1] = test system: WT MEFs and Sept4/ARTS KO MEFs cells; experiment: Western blot of WT MEFs and Sept4/ARTS KO MEFs; assay type: cell-based, mouse; conditions: 20 or 40 μM, 24 hours
Method: (§1) Cells were lysed in whole-cell extract buffer [25 mM HEPES, pH 7.7, […], 1.5 mM MgCl2, 0.2 mM EDTA, 0.1% Triton X-100, 100 μg/ml phenylmethylsulfonyl fluoride (PMSF) and protease inhibitor cocktail (Roche, 1:100 dilution)] and placed on ice for 30 min (vortexing once after 15 min). After 30 minutes, the samples were centrifuged at 13,000×g for 10 minutes at 4° C. The supernatants containing total protein were measured for protein concentration using Bio-Rad Protein Assay Dye Reagent Concentrate Kit. 40 to […] was separated by sodium dodecyl sulfate-polyacrylamide gel electrophoresis (SDS-PAGE) (12% or 7.5%), followed by transfer to a nitrocellulose membrane. The membranes were blocked with 5% (w/v) non-fat dried skimmed milk powder in PBS supplemented with 0.05% Tween-20 (PBS-T) for 1 h at RT. Next, primary antibodies were added at 4° C. overnight or for 2 h at room temperature. Membranes were then incubated with secondary antibody for 1 h at RT and washed three times for 15 min each with PBS-T. Western Bright ECL (Advansta) was added to the membrane for 30-60 s and analyzed using Image Quant LAS-4000 (GE Healthcare Life Sciences) and Image Quant LAS-4000 software (GE Healthcare Life Sciences).

sept4/ARTS KO MEFs = experiment: Western blot of Sept4/ARTS KO MEFs treated with proteasome inhibitor; assay type: cell-based, mouse; conditions: MG-132, 20 μM for 6 hours
Method: as §1

p53-ARTS complex = experiment: BiFC assay in WT MEFs (VN-p53 and VC-ARTS); assay type: cell-based; conditions: 200 μM Etoposide
Source text: The split-Venus BiFC system was used to evaluate close proximity indicating possible direct binding between pairs of proteins. The proteins were fused either to the N-terminal part of the VenusYFP (yellow fluorescence protein) (VN) or the C-terminal domain (VC). All Venus fragments were fused to the C-terminal sequences of these proteins. The Jun and bFos pair was used as a positive control (p.c.), and the Jun and bFosdeltaZTP pair was used as a negative control (n.c.). A vector encoding dsRed was used as a transfection efficiency marker.

[2] = test system: Sept4/ARTS KO MEFs, shARTS HeLa, A-375, WT MEFs, WT HeLa; experiment: Western blot of cell lines with different amounts of endogenous ARTS; assay type: cell-based; conditions: ABT-199 alone, 24 hrs
Method: (§2) The cells were lysed in WCE (whole-cell extract) buffer [25 mM Hepes, pH 7.7, 0.3M NaCl, 1.5 mM MgCl2, 0.2 mM EDTA, 0.1% Triton X-100, 100[μg/ml PMSF and protease inhibitor cocktail (Roche, 1:100 dilution)]. 100 μg of total cell protein, measured with the Bio-Rad Protein Assay kit, were separated by SDS-PAGE (12%) followed by transfer for 2 h on to a nitrocellulose membrane. The membrane was blocked with 5% (w/v) non-fat dried skimmed milk powder in PBS supplemented with 0.05% Tween20 (PBS-T) for 1 hour at room temperature (R.T). Membrane was then probed with primary antibody at 4° C. overnight. Next, the membrane was incubated with the appropriate HRP-conjugated secondary antibody, for 1 hour at R.T. and washed 15 min ×3 with PBS-T. WesternBright ECL (Advansta) was added to the membrane for 2 min and analyzed using ImageQuant LAS-4000 analyzer (GE Healthcare Life Sciences) & “ImageQuant LAS-4000” software (GE Healthcare Life Sciences). Densitometry analysis was performed using ImageQuant total lab 7 (GE Healthcare Life Sciences), image analysis software.

[3] = test system: A375 human melanoma cells; experiment: SDS PAGE and Western blot analysis of A375 cells; assay type: cell-based
Method: as §2, §1

[4] = test system: CCRF-CEM (acute lymphoblastic leukemia) cell line; experiment: Western blot analysis of CCRF-CEM; assay type: cell-based; design: cleaved PARP and cleaved Caspase 3: dose or concentration left out as unconfirmed
Method: as §2

HL-60 leukemia cell line = experiment: Western blot analysis of HL-60; assay type: cell-based; conditions: 1 μM ABT199, 24 hrs
Method: as §2

With COC(=O)c1[nH]c2ccc(Cl)cc2c1NC(=O)CN1CCN(Cc2ccccc2)CC1 [A4, 3-[2-(4-Benzyl-piperazin-1-yl)-acetylamino]-5-chloro-1H-indole-2-carboxylic acid methyl ester] as the compound, how does the XIAP levels [1] read?
Its XIAP levels is “downregulates”.

What about the p53 levels [1] of the same compound?
Its p53 levels is “upregulate”.

CC(C)C[C@@H](C=O)NC(=O)[C@H](CC(C)C)NC(=O)[C@H](CC(C)C)NC(=O)OCc1ccccc1 [MG-132] (Cbz-Leu-Leu-Leu-aldehyde) was tested. Which p53 protein levels (sept4/ARTS KO MEFs) did it give?
Its p53 protein levels is “accumulation”.

With COc1cc([C@@H]2c3cc4c(cc3[C@@H](O[C@@H]3O[C@@H]5CO[C@@H](C)O[C@H]5[C@H](O)[C@H]3O)[C@H]3COC(=O)[C@H]23)OCO4)cc(OC)c1O [Etoposide] as the compound, how does the “formation of p53-ARTS complex” value (p53-ARTS complex) read?
Its value is “promotes”.

Which results are given for CC1(C)CCC(CN2CCN(c3ccc(C(=O)NS(=O)(=O)c4ccc(NCC5CCOCC5)c([N+](=O)[O-])c4)c(Oc4cnc5[nH]ccc5c4)c3)CC2)=C(c2ccc(Cl)cc2)C1 [ABT-199, 4-[4-[[2-(4-Chlorophenyl)-4,4-dimethyl-1-cyclohexen-1-yl]methyl]-1-piperazinyl]-N-[[3-nitro-4-[[(tetrahydro-2H-pyran-4-yl)methyl]amino]phenyl]sulfonyl]-2-(1H-pyrrolo[2,3-b]pyridin-5-yloxy)benzamide, reference compound]?
ARTS levels [2]: upregulated; ARTS levels ([3]; 5 μM ABT-199, 24 hrs): upregulated; apoptotic markers, cleaved PARP and cleaved Caspase 3 ([3]; 5 μM ABT-199, 24 hrs): upregulated; BCL-2 levels ([3]; 10 μM ABT-199, 24 hrs): upregulated; Bcl-2 levels ([3]; ABT-199 alone, 2, 6 and 24 hrs): upregulated; cleaved PARP and cleaved Caspase 3 ([4]; ABT-199, 24 hrs): upregulated; cleaved Caspase 3 ([4]; ABT-199 alone, 24 hrs): increased; cleaved PARP and cleaved Caspase 3 (HL-60 leukemia cell line): upregulated
